Laboratory results reported in patent publication US8927550B2, “Heterocyclic compounds as CCR1 receptor antagonists” (Boehringer Ingelheim International GmbH, priority 2009, dated 2015).

biological target: T1, CCR1 (Homo sapiens, UniProt P32246); test: Calcium flux in CCR1 transfected cells, Method B (Calcium 4 dye, HAMAMATSU FDSS6000), MIP-1alpha at EC80; format: cell-based; conditions: cells stably expressing recombinant CCR1 and G-alpha-16, 30 minutes at 37 C then 30 minutes at room temperature
T1 construct: host or cells: Non-adherent cells
T1 sequence (P32246 1-355): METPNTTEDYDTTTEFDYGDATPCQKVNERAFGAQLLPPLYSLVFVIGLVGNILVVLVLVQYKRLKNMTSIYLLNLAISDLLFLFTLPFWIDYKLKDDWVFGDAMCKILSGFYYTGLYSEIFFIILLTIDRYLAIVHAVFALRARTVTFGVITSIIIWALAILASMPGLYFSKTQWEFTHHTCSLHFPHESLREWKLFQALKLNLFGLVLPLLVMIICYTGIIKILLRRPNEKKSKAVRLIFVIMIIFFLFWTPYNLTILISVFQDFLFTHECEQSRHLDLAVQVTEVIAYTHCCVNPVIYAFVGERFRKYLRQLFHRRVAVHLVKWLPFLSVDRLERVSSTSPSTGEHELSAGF
Experimental: Compounds are assessed for the ability to block the interaction of CCR1 and MIP-1α in a functional cellular assay measuring calcium flux in CCR1 transfected cells.
Method B: Non-adherent cells purchased from Chemicon Corporation (HTS005C), stably expressing recombinant CCR1 and G-alpha-16 are grown in RPMI 1640 medium (Mediatech 10-080-CM) supplemented with 10% FBS, 0.4 mg/mL Geneticin and penicillin/streptomycin. On the day of the assay, the cells are loaded with Calcium 4 dye (Molecular Devices R7448) with Probenecid (Invitrogen P346400) at 8E5 cells/mL for 1 hour at room temperature. After 1 hour, they are seeded in a 384-well tissue culture-treated plate at a density of 20,000 cells/well. Appropriately diluted test compound is added to the well to achieve a top concentration of 3,000 nM (diluted 4-fold with 10 doses total). The final concentration of DMSO is 1%. The buffer is HBSS (Invitrogen 14025) with 20 mM HEPES at pH 7.4. The cells incubate 30 minutes at 37 C and then 30 minutes at room temperature. The plates are transferred to the HAMAMATSU FDSS6000 where MIP-1alpha in 1% BSA is added at the EC80 final concentration. All plates must be read within 4 hours of the start of dye-loading. Wells+/−MIP-1alpha containing diluted DMSO instead of compound serve as the controls. Data are analyzed using Activity Base software.

Compound	IC50 [nM]
CC[C@H](NC(=O)c1cccc2c(-c3ccc(F)cc3)ncn12)c1ccc(S(C)(=O)=O)nc1 [1-(4-Fluorophenyl)-imidazo[1,5-a]pyridine-5-carboxylic acid [(S)-1-(6-methanesulfonyl-pyridin-3-yl)-propyl]-amide]	19
CCC[C@H](NC(=O)c1cccn2c(-c3ccc(F)cc3)cnc12)c1ccc(Br)nc1 [3-(4-Fluorophenyl)-imidazo[1,2-a]pyridine-8-carboxylic acid [(S)-1-(6-bromopyridin-3-yl)-butyl]-amide]	1100
CC[C@H](NC(=O)c1cccn2c(-c3ccc(F)cc3)cnc12)c1ccc(Br)nc1 [3-(4-Fluorophenyl)-imidazo[1,2-a]pyridine-8-carboxylic acid [(S)-1-(6-bromopyridin-3-yl)-propyl]-amide]	1340
CS(=O)(=O)c1cc(CNC(=O)c2nccn3c(-c4ccc(F)cc4)ncc23)ccn1 [3-(4-Fluorophenyl)-imidazo[1,5-a]pyrazine-8-carboxylic acid (2-methanesulfonyl-pyridin-4-ylmethyl)-amide]	600
CC(C)(NC(=O)c1nccn2c(-c3ccc(F)cc3)ncc12)c1ccnc(Br)c1 [3-(4-Fluorophenyl)-imidazo[1,5-a]pyrazine-8-carboxylic acid [1-(2-bromopyridin-4-yl)-1-methyl-ethyl]-amide]	1100
CS(=O)(=O)c1cc(C2(NC(=O)c3nccn4c(-c5ccc(F)cc5)ncc34)CC2)ccn1 [3-(4-Fluorophenyl)-imidazo[1,5-a]pyrazine-8-carboxylic acid [1-(2-methanesulfonyl-pyridin-4-yl)-cyclopropyl]-amide]	410
CC[C@H](NC(=O)c1nccn2c(-c3ccc(F)cc3)ncc12)c1ccnc(S(C)(=O)=O)c1 [3-(4-Fluorophenyl)-imidazo[1,5-a]pyrazine-8-carboxylic acid [(S)-1-(2-methanesulfonyl-pyridin-4-yl)-propyl]-amide]	30
CC[C@H](NC(=O)c1cccn2c(-c3ccc(F)cc3)ncc12)c1ccc(Br)nc1 [3-(4-Fluorophenyl)-imidazo[1,5-a]pyridine-8-carboxylic acid [(S)-1-(6-bromopyridin-3-yl)-propyl]-amide]	29

These reach a lower IC50. Values come first.

IC50 [nM]	Compound
5	CCC[C@H](NC(=O)c1nccn2c(-c3ccc(F)cc3)ncc12)c1ccnc(S(C)(=O)=O)c1 [3-(4-Fluorophenyl)-imidazo[1,5-a]pyrazine-8-carboxylic acid [(S)-1-(2-methanesulfonyl-pyridin-4-yl)-butyl]-amide]
6	CCC[C@H](NC(=O)c1nccn2c(-c3ccc(F)cc3)ncc12)c1cncc(S(C)(=O)=O)c1 [3-(4-Fluorophenyl)-imidazo[1,5-a]pyrazine-8-carboxylic acid [(S)-1-(5-methanesulfonyl-pyridin-3-yl)-butyl]-amide]
2	CC[C@H](NC(=O)c1cccn2c(-c3ccc(F)cc3)ncc12)c1ccnc(S(C)(=O)=O)c1 [3-(4-Fluorophenyl)-imidazo[1,5-a]pyridine-8-carboxylic acid [(S)-1-(2-methanesulfonyl-pyridin-4-yl)-propyl]-amide]
17	CC[C@H](NC(=O)c1cccn2c(-c3ccc(F)cc3)ncc12)c1ccc(S(C)(=O)=O)nc1 [3-(4-Fluorophenyl)-imidazo[1,5-a]pyridine-8-carboxylic acid [(S)-1-(6-methanesulfonyl-pyridin-3-yl)-propyl]-amide]
2	CS(=O)(=O)c1cccc(CNC(=O)c2cc(C#N)cc3c2ccn3-c2ccc(F)cc2)c1 [6-Cyano-1-(4-fluorophenyl)-1H-indole-4-carboxylic acid 3-methanesulfonyl-benzylamide]
18	CN1CCC(NS(=O)(=O)c2ccc(CNC(=O)c3cc(C#N)cc4c3ccn4-c3ccc(F)cc3)cc2)CC1 [6-Cyano-1-(4-fluorophenyl)-1H-indole-4-carboxylic acid 4-(1-methyl-piperidin-4-ylsulfamoyl)-benzylamide]
